Assays:
[1] = test system: cultured guinea pig tracheal smooth muscle cells; experiment: Expression of PKA and PKG (Western blot); assay type: cell-based; details: 1 _M, 30 min
Procedure: (§1) Cell Culture of Tracheal Smooth Muscle: Guinea pigs (350-450 g) were injected i.p. with a lethal dose of pentobarbital. The tracheas were excised and cut longitudinally through the cartilage. Using a dissecting microscope, TSM strips were dissected from the surrounding parentchyma. The epithelium was removed from the luminal surface, and bands of TSM were gently separated from the underlying connective tissue. Then TSM strips were chopped into small sections (1 mm^3) and incubated in Hanks' balanced salt solution (138 mM NaCl, 4 mM NaHCO3, 5 mM KCl, 0.3 mM KH2PO4, 0.3 mM Na2HPO4, and 1.0 mM glucose) with 0.05% elastase type IV and 0.2% collagenase type IV (Invitrogen, Carlsbad, Calif.) for 30 min at 37_ with gentle shaking. The solution of dissociated smooth muscle cells was centrifuged (6 min at 500 g), and the pellet was resuspended in 1:1 Dulbecco's modified Eagle's medium/Ham's F-12 medium supplemented with 10% fetal bovine serum, 0.244% NaHCO3, and 1% penicillin/streptomycin. Cells were cultured in 25-cm^2 flasks at 37_ in humidified air containing 5% CO2. Confluent cells were detached with 0.25% trypsin-0.02% EDTA at 37_and then subcultured to establish secondary cultures. Cultures were maintained for no more than four passages. They were identified as smooth muscle cells by the typical hill-and-valley appearance, and cellular homogeneity was further confirmed by the presence of smooth muscle specific _-myosin and _-actin immunoreactivity. Indirect immunofluorescence staining for a variety of antigens was carried out by first plating the cells on chamber slides, fixing the cells in 3.7% formaldehyde-phosphate-buffered saline for 10 min, and permeabilizing the cells with phosphate-buffered saline and 0.1% Triton X-100. Cells were then stained with either a mouse monoclonal antibody directed against the amino-terminal 10 amino acids of _-smooth muscle actin or _-myosin (Roche Diagnostics, Indianapolis, Ind.). All cells were stained with fluorescein-labeled goat anti-mouse IgG antibody (Roche Diagnostics).
Expression of PKA and PKG: The expression of PKA and PKG was determined by Western blot as previously described by Wu et al. and Murthy et al. (Wu B N, Lin R J, Lo Y C, Shen K P, Wang C C, Lin Y T, and Chen I J (2004) KMUP-1, a xanthine derivatives, induces relaxation of guinea-pig isolated trachea: the role of the epithelium, cyclic nucleotides and K^+ channels. Br J Pharmacol 142:1105-1114; Murthy K S, Zhou H, and Makhlouf G M (2002) PKA-dependent activation of PDE3A and PDE4 and inhibition of adenylyl cyclase V/VI in smooth muscle. Am J Physiol 282:C508-C517). Guinea pig TSMCs were incubated with KMUP-3 for 30 min. Each of the cell lysates, each containing 1 _g of cellular protein, was electrophoresed in 7.5% SDS-polyacrylamide gel electrophoresis and then transferred to polyvinylidene diflouride membrane (Millipore Corporation, Billerica, Mass.). The membrane was stained with Ponceau S to verify the integrity of the transferred proteins and to monitor the unbiased transfer of all protein samples. The membrane was then washed with 25 ml of TBS (100 mM NaCl, 0.1% and 10 mM Tris-HCl, pH 7.5) for 5 min at room temperature and incubated in 25 ml of blocking buffer (TBS plus 0.1% Tween 20 and 5% nonfat milk) overnight at 4_. In the measurement of protein, the membrane was incubated with appropriate PKARI or PKA1—1— primary antibody (diluted 1:250) in 2 ml of blocking buffer for 1 h at room temperature, washed three times for 5 min each with 15 ml of Tris-buffered saline/Tween 20 (TBS plus 0.1% Tween 20), incubated with horseradish peroxidase-conjugated secondary antibody (1:10,000) in 15 ml of blocking buffer with gentle agitation for 1 h at room temperature, and finally washed three times for 5 min each time with 15 ml of Tris-buffered saline/Tween 20. The membrane was then subjected to enhanced chemiluminescence (GE Healthcare) for the detection of the specific antigen.

[2] = test system: carbachol (1 _M)-precontracted guinea pig trachea; experiment: Isolated tracheal preparation, measurement of tension; details: 100 _M, carbachol (1 _M)-precontracted, EP+
Procedure: Isolated Tracheal preparation and Measurement of Tension: Guinea pigs (350-450 g) were anesthetized with pentobarbital (70 mg/kg) i.p. and killed by a sharp blow on the neck, followed by cervical dislocation. The trachea was excised, cleaned of adhering fat and connective tissue, cut transversely into four to five rings, and then opened by cutting longitudinally through the cartilage rings diametrically opposite the tracheal smooth muscle (Hwang T L, Wu C C, and Teng C M (1999) YC-1 potentiates nitric oxide-induced relaxation in guinea-pig trachea. Br J Pharmacol 128:577-584). Then trachea rings were suspended in a 10-ml organ bath containing Krebs' solution (118 mM NaCl, 25 mM NaHCO3, 4.7 mM KCl, 1.2 mM KH2PO4, 1.2 mM MgSO4, 11 mM glucose, and 2.5 mM CaCl2, pH 7.3-7.4) maintained at 37_and aerated with 95% O2 and 5% CO2. Each tracheal tissue sample was subjected to 2 g of initial basal tension. All experiments were carried out in the presence of indomethacin (3 _M) and propranolol (1 _M) to prevent the formation of prostanoids and to inhibit _-adrenergic responses, respectively. Isometric tension was recorded with a force displacement transducer (model FT03; Grass Instruments, Quincy, M A). Before the start of measurements, all preparations were allowed to equilibrate with frequent washing for 1 h. They were first contracted with carbachol (1 _M) to determine the contractility of preparations. This was also done at the end of each experiment. The preparations were then washed and allowed to equilibrate with Krebs' solution for 50 min before being contracted a second time with carbachol (1 _M). When stable constriction to carbachol was reached, concentration responses of KMUP-3 (10, 30, and 100 _M) were obtained. Data were expressed as percentages of the maximum contractile response to carbachol (1 _M).
In experiments to examine the role of epithelium in tracheal relaxation, the epithelial cells were removed mechanically by rubbing the internal surface of trachea with a fine silver wire, and the removal of the epithelial layer was confirmed by histological examination as previously described (Wu et al., 2004).
To examine the possible mechanism of tracheal relaxant effects of KMUP-3, the tracheal strips were pretreated with a K^+ channel blocker, tetraethylammonium (TEA; 10 mM); a KATP channel blocker, glibenclamide (1-M); voltage-dependent K^+ channel blocker, 4-aminopyridine (4-AP, 100 _M); Ca^2+-dependent K^+ channel blockers, apamin (1 _M) and charybdotoxin (ChTX; 0.1 _M); a sGC inhibitor, 1H-[1,2,4]oxadiazolo[4,3-a]quinoxalin-1-one (ODQ; 1 _M); an NOS inhibitor, N—nitro-L-arginine methyl ester (L-NAME; 100 _M); and an adenylate cyclase (AC) inhibitor, SQ 22536 (100 _M) for 30 min prior to the addition of KMUP-3 (10, 30, and 100 _M). In the other experiments, TSMs were precontracted with 60 mM KCl to examine the relaxation achieved by KMUP-3. The KCl solution was prepared by substituting NaCl with KCl (60 mM) in an equimolar amount.

[3] = test system: guinea pig tracheal smooth muscle cells; experiment: Measurement of cGMP in TSMCs; assay type: cell-based; details: for amounts of cGMP versus vehicle (FIG. 6): 100 _M, 20 min
Procedure: as §1
(§2) Measurement of cAMP and cGMP: Intracellular concentrations of cAMP and cGMP in TSMCs were measured as in our previous reports (Wu B N, Lin R J, Lin C Y, Shen K P, Chiang L C, and Chen I J (2001) A xanthine-based KMUP-1 with cyclic GMP enhancing and K^+ channels opening activities in rat aortic smooth muscle. Br J Pharmacol 134:265-274; Lin R J, Wu B N, Lo Y C, Shen K P, Lin Y T, Huang C H, and Chen I J (2002) KMUP-1 relaxes rabbit corpus cavernosum smooth muscle in vitro and in vivo: involvement of cyclic GMP and K(+) channels, Br J Pharmacol 135:1159-1166). In brief, cells were finally grown in 24-well plates (10^5 cells/well). At confluence, monolayer cells were washed with phosphate-buffered saline and then incubated with KMUP-3 (0.01-100 _M) for 20 min at 37_ in medium. […] The reaction was terminated by replacement of medium with 1 ml of ice-cold 1 N hydrochloric acid. Cells suspensions were sonicated and then centrifuged at 2500 g for 15 min at 4_. Then, the supernatants were lyophilized and the cAMP and cGMP of each sample were determined using commercially available radioimmunoassay kits (GE Healthcare, Little Chalfont, Buckinghamshire, UK).

[4] = test system: guinea pig tracheal smooth muscle cells; experiment: Measurement of cAMP in TSMCs; assay type: cell-based; details: for cAMP accumulation versus vehicle (FIG. 6) / cAMP level: 100 _M, 20 min; for cAMP level: basal/vehicle 62.6±6.4
Procedure: as §1, §2

[5] = test system: PDE4 purified from human U-937 pronocytic cells; experiment: Phosphodiesterase activity, PDE4; assay type: biochemical; details: 10 _M compound, n = 3
Procedure: Phosphodiesterase Activity: PDE activity was determined by the method of Nicholson et al. (Nicholson C D, Challiss R A, and Shahid M (1991) Differential modulation of tissue function and therapeutic potential of selective inhibitors of cyclic nucleotide phosphodiesterase isonzymes. Trends Pharmaclo Sci 12:19-27). PDE3 and PDE5 purified from human platelets and PDE4 purified from human U-937 pronocytic cells were used. Test compound (10 _M) or vehicle was incubated with 0.2 _g of enzyme and 1 _M cAMP containing 0.01 _M [^3H]cAMP in Tris buffer, pH 7.5, for 20 min at 25_. The reaction was terminated by boiling for 2 min, and the resulting […] was converted to adenosine by the addition of 10 mg/ml snake venom nucleotidase, which is followed by a further incubation at 37_for 10 min. Unhydrolyzed cAMP was bound to AG1-X2 resin, and the remaining [^3H]adenosine in the aqueous phase was quantitated by scintillation counting.

Row | SMILES | relaxation in epithelium-intact trachea (FIG. 3(B)) [2] | amounts of cGMP versus vehicle (FIG. 6) [3] | cAMP accumulation versus vehicle (FIG. 6) [4] | other results
1 | Nc1ncnc2c1nc(Br)n2[C@@H]1O[C@@H]2COP(=O)(O)O[C@H]2[C@H]1O [8-Br-cAMP, reference compound] | – | – | – | expression of immunoreactive PKARI protein (FIG. 7(A)) [1]: increased the expression of PKARI
2 | COc1ccc(C2CNC(=O)C2)cc1OC1CCCC1 (stereo not drawn) [rolipram, reference compound] | cause relaxations | not observed | significant elevations | –
3 | CCCOc1ccccc1-c1nc2nn[nH]c2c(=O)[nH]1 [zaprinast, reference compound] | cause relaxations | significantly enhances | not so | –
4 | Nc1nc2c(nc(Br)n2[C@@H]2O[C@@H]3COP(=O)(O)O[C@H]3[C@H]2O)c(=O)[nH]1 [8-Br-cGMP, reference compound] | – | – | – | expression of PKA1—1— (FIG. 7(B)) [1]: increased the expression of PKA1—1—
5 | Cn1c(=O)c2[nH]cnc2n(C)c1=O [theophylline, reference compound] | cause relaxations | significantly enhances | significant elevations | PDE4 Inhibition [5]: 7.9±1.2%
6 | CC(C)Cn1c(=O)n(C)c(=O)c2[nH]cnc21 [IBMX, 3-isobutyl-1-methylxanthine, reference compound] | cause relaxations | – | – | –
7 | O=c1onc2cnc3ccccc3n12 [ODQ, 1H-[1,2,4]oxadiazolo[4,3-a]quinoxalin-1-one, reference compound] | – | – | – | Cyclic GMP level ([3]; 10 _M (ODQ alone), vehicle 1.18 ± 0.06): 1.12 ± 0.03 pmol/mg protein
8 | Cc1[nH]c(=O)c(C#N)cc1-c1ccncc1 [milrinone, reference compound] | cause relaxations | not observed | significant elevations | –
9 | CC1(C)Oc2ccc(C#N)cc2[C@@H](N2CCCC2=O)[C@@H]1O [levcromakalim, reference compound] | displayed relaxation effects | – | – | –
10 | Nc1ncnc2c1ncn2C1CCCO1 (stereo not drawn) [SQ 22536, reference compound] | – | – | – | cAMP level [4]: 74.32 ± 7.56 pmol/mg protein
11 | C=C[C@@]1(C)CC(=O)[C@]2(O)[C@@]3(C)[C@@H](O)CCC(C)(C)[C@@H]3[C@H](O)[C@H](OC(C)=O)[C@@]2(C)O1 [Forskolin, forskolin, reference compound] | – | – | – | cAMP level in presence of SQ 22536 ([4]; 100 _M compound plus SQ 22536 (100 _M) pretreatment): 94.33 ± 3.42 pmol/mg protein; cAMP level [4]: 119.15 ± 5.11 pmol/mg protein

Source: US20080051413A1, “Nitrophenylpiperazine derivative of xanthine which relaxes tracheal airway and increases respiratory performance” (KAOHSIUNG MEDICAL UNIVERSITY, priority 2006, published 2008)
